#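 Dose response: 5 concentrations. Exposure: 48 h. Format: 96-well plates. Endpoint: linear interpolation; highest concentration if not reached. The concentration for full growth arrest is given as TGI.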
# Assays:
# Test in all cases: growth of human tumour cells (NCI), 48 h
# 786-0 renal = system: 786-0 renal
# A498 renal = system: A498 renal
# A549 NSCLC = system: A549 NSCLC
# ACHN renal = system: ACHN renal
# BT-549 breast = system: BT-549 breast
# CAKI-1 renal = system: CAKI-1 renal
# CCRF-CEM leukemia = system: CCRF-CEM leukemia
# COLO 205 colon = system: COLO 205 colon
# DU-145 prostate = system: DU-145 prostate
# EKVX NSCLC = system: EKVX NSCLC
# HCT-116 colon = system: HCT-116 colon
# HCT-15 colon = system: HCT-15 colon
# HOP-62 NSCLC = system: HOP-62 NSCLC
# HOP-92 NSCLC = system: HOP-92 NSCLC
# HS 578T breast = system: HS 578T breast
# HT29 colon = system: HT29 colon
# IGROV1 ovarian = system: IGROV1 ovarian
# K-562 leukemia = system: K-562 leukemia
# KM12 colon = system: KM12 colon
# LOX IMVI melanoma = system: LOX IMVI melanoma
# M14 melanoma = system: M14 melanoma
# MALME-3M melanoma = system: MALME-3M melanoma
# MCF7 breast = system: MCF7 breast
# MDA-MB-231 breast = system: MDA-MB-231 breast
# MDA-MB-435 = system: MDA-MB-435
# MOLT-4 leukemia = system: MOLT-4 leukemia
# NCI-H226 lung = system: NCI-H226 lung
# NCI-H23 lung = system: NCI-H23 lung
# NCI-H460 lung = system: NCI-H460 lung
# NCI-H522 lung = system: NCI-H522 lung
# NCI/ADR-RES ovarian = system: NCI/ADR-RES ovarian
# OVCAR-3 ovarian = system: OVCAR-3 ovarian
# OVCAR-4 ovarian = system: OVCAR-4 ovarian
# OVCAR-5 ovarian = system: OVCAR-5 ovarian
# OVCAR-8 ovarian = system: OVCAR-8 ovarian
# PC-3 prostate = system: PC-3 prostate
# RPMI-8226 leukemia = system: RPMI-8226 leukemia
# RXF 393 renal = system: RXF 393 renal
# SF-268 CNS = system: SF-268 CNS
# SF-295 CNS = system: SF-295 CNS
# SF-539 CNS = system: SF-539 CNS
# SK-MEL-2 melanoma = system: SK-MEL-2 melanoma
# SK-MEL-28 melanoma = system: SK-MEL-28 melanoma
# SK-MEL-5 melanoma = system: SK-MEL-5 melanoma
# SK-OV-3 ovarian = system: SK-OV-3 ovarian
# SN12C renal = system: SN12C renal
# SNB-19 CNS = system: SNB-19 CNS
# SNB-75 CNS = system: SNB-75 CNS
# SR leukemia = system: SR leukemia
# SW-620 colon = system: SW-620 colon
# T-47D breast = system: T-47D breast
# TK-10 renal = system: TK-10 renal
# U251 CNS = system: U251 CNS
# UACC-257 melanoma = system: UACC-257 melanoma
# UACC-62 melanoma = system: UACC-62 melanoma
# UO-31 renal = system: UO-31 renal
smiles,measurement,setting,value
Cn1cnc([N+](=O)[O-])c1[Se]c1ncnc2nc[nH]c12,TGI,786-0 renal,26.5 µM
same,TGI,A498 renal,37 µM
same,TGI,A549 NSCLC,> 100 µM
same,TGI,ACHN renal,83.5 µM
same,TGI,BT-549 breast,33.8 µM
same,TGI,CAKI-1 renal,22.1 µM
same,TGI,CCRF-CEM leukemia,34.1 µM
same,TGI,COLO 205 colon,33.3 µM
same,TGI,DU-145 prostate,> 100 µM
same,TGI,EKVX NSCLC,47.4 µM
same,TGI,HCT-116 colon,74.5 µM
same,TGI,HCT-15 colon,81.6 µM
same,TGI,HOP-62 NSCLC,50.3 µM
same,TGI,HOP-92 NSCLC,27.9 µM
same,TGI,HS 578T breast,39.9 µM
same,TGI,HT29 colon,84.4 µM
same,TGI,IGROV1 ovarian,> 100 µM
same,TGI,K-562 leukemia,25.6 µM
same,TGI,KM12 colon,54.1 µM
same,TGI,LOX IMVI melanoma,10.8 µM
same,TGI,M14 melanoma,24.8 µM
same,TGI,MALME-3M melanoma,21.1 µM
same,TGI,MCF7 breast,41.8 µM
same,TGI,MDA-MB-231 breast,19.2 µM
same,TGI,MDA-MB-435,19.5 µM
same,TGI,MOLT-4 leukemia,22 µM
same,TGI,NCI-H226 lung,22.6 µM
same,TGI,NCI-H23 lung,61.1 µM
same,TGI,NCI-H460 lung,> 100 µM
same,TGI,NCI-H522 lung,14.7 µM
same,TGI,NCI/ADR-RES ovarian,> 100 µM
same,TGI,OVCAR-3 ovarian,29.5 µM
same,TGI,OVCAR-4 ovarian,23.5 µM
same,TGI,OVCAR-5 ovarian,36.2 µM
same,TGI,OVCAR-8 ovarian,32.2 µM
same,TGI,PC-3 prostate,> 100 µM
same,TGI,RPMI-8226 leukemia,71.7 µM
same,TGI,RXF 393 renal,38.7 µM
same,TGI,SF-268 CNS,78.9 µM
same,TGI,SF-295 CNS,> 100 µM
same,TGI,SF-539 CNS,30.9 µM
same,TGI,SK-MEL-2 melanoma,34.5 µM
same,TGI,SK-MEL-28 melanoma,20.3 µM
same,TGI,SK-MEL-5 melanoma,6.6 µM
same,TGI,SK-OV-3 ovarian,> 100 µM
same,TGI,SN12C renal,32.8 µM
same,TGI,SNB-19 CNS,85.8 µM
same,TGI,SNB-75 CNS,> 100 µM
same,TGI,SR leukemia,17 µM
same,TGI,SW-620 colon,26.8 µM
same,TGI,T-47D breast,32.8 µM
same,TGI,TK-10 renal,> 100 µM
same,TGI,U251 CNS,44 µM
same,TGI,UACC-257 melanoma,16.8 µM
same,TGI,UACC-62 melanoma,10.1 µM
same,TGI,UO-31 renal,60 µM

# — PubChem BioAssay (NCI)
